The target of test [1] is T1, BRD4 (Homo sapiens, UniProt O60885). The test is described as follows: Immunoblot for BRD4 in MV4-11 cells. It is filed as cell-based. For orientation: A western blot detects proteins with antibodies after separation by electrophoresis.
Test [2] deals with MV4-11. The test is described as follows: Analysis of apoptotic cells by Caspase Glo assay. It is filed as cell-based. The conditions noted are these: MV4-11, 4 or 8 hours treatment, assessed at 24 hours.
Test [3] concerns the target BRDT (Homo sapiens, UniProt Q58F21). The test is described as follows: BRDT IC50 (Table 4). Format: binding. The settings on record: read-out: IC50 (nM) BRDT.
The target of test [4] is LRRK2 (Homo sapiens, UniProt Q5S007). The test is described as follows: LRRK2 IC50 (Table 4). Format: biochemical.
Test [5] has as its system 797. The test is described as follows: Cell viability, 797 cells (Table 4). It is filed as cell-based. The settings on record: read-out: IC50 (nM) 797.
The test system of test [6] is MV4; 11. The test is described as follows: Cell viability, ATPlite 48 hours, MV4-11. The conditions noted are these: Homo sapiens, 11 cells. It is filed as cell-based. For orientation: ATP-based viability assays read luminescence as a measure of living cells.
In test [7] the target is T2, CRBN-DDB1 (Homo sapiens, UniProt Q96SW2).
T2 construct: 6xHis (given for the complex); made in house; host or cells: Sf9 cells (Invitrogen), pFastBac
The test is described as follows: CRBN-DDB1 Ligand-Displacement AlphaScreen Assay (thalidomide competition).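 Also: streptavidin donor and nickel chelate acceptor bead proximity signal after 30 min incubation, normalized with no-protein background as 0% and DMSO wells as 100% activity.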 It is filed as binding. The conditions noted are these: biotin-thalidomide competition; read-out: THAL ALPHA (IC50). On the technique in general: Bead proximity is the source of the signal in Alpha formats.

Test [8] addresses T3, CRBN (Homo sapiens, UniProt Q96SW2).
T3 construct: endogenous in cells
The test is described as follows: Intracellular CRBN Engagement Assay (dFKBP7 rescue). The conditions noted are these: competition with 80 nM dFKBP7, 3 hours; read-out: FKBP7 rescue (EC50). Format: cell-based.

Test [9] addresses T1, BRD4. The test is described as follows: BRD4 AlphaScreen. It is filed as binding. Further details: […]; His tag (inferred from capture on Ni-coated acceptor beads).
Test [10] deals with FKBP12 (WT) (Homo sapiens, UniProt P62942). The test is described as follows: FKBP12 (WT) Ligand-Displacement AlphaScreen Assay. Format: binding. The conditions noted are these: biotin-SLF displacement, read-out: IC50 (nM) FKBP.
Test [11] concerns the target FKBP12 (36V) (Homo sapiens, UniProt P62942, F37V). The test is described as follows: FKBP12 (36V) Ligand-Displacement AlphaScreen Assay. It is filed as binding. The conditions noted are these: biotin-SLF displacement, read-out: IC50 (nM) FKBP 36V.

Each structure is given as a SMILES string. Like-named read-outs stand apart in the source and are kept apart here. Where only a bound is given, the exact number is not on record here.

`Cc1sc2c(c1C)C(c1ccc(Cl)cc1)=N[C@@H](CC(=O)OC(C)(C)C)c1nnc(C)n1-2` [JQ1]: the “BRD4 degradation by treatment alone” value in test [1] is “insufficient to induce BRD4 degradation”. The “induction of apoptosis after pulsed treatment and drug washout” value in [2] is “did not yield a pronounced apoptotic response”.

For `COc1cc(C(=O)NCCCCNC(=O)COc2cccc3c2C(=O)N(C2CCC(=O)NC2=O)C3=O)ccc1Nc1ncc2c(n1)N(C)c1ccccc1C(=O)N2C` (stereo not drawn) [dBET11], the IC50 was 2900 nM in test [3]; 7.3 nM in [4]; more than 20000 nM in test [5]; 3.38 nM in test [6]; 0.0251 µM in [7]; 958 nM in [9] (read-out: BRD4 Alpha (IC50)). Besides, in test [9] (read-out: IC50 (nM) BRD4), the IC50 stood at 958 nM. Further, in test [8], the EC50 came to 2430 µM.

For `CCC(C)(C)C(=O)C(=O)N1CCCC[C@H]1C(=O)O[C@H](CCc1ccc(OC)c(OC)c1)c1cccc(NC(=O)CCC(=O)NCCCCNC(=O)COc2cccc3c2C(=O)N(C2CCC(=O)NC2=O)C3=O)c1` (stereo partly drawn) [dFKBP-1], the figures for the IC50 in test [10] and in test [11] were 274 nM and 237 nM, respectively.

Broadly, the IC50 is the concentration needed to halve the response being measured. One may read the EC50 as the concentration that produces a half-maximal response.

The values above are taken from patent US10464925B2, “Methods to induce targeted protein degradation through bifunctional molecules” (Dana-Farber Cancer Institute, Inc., priority 2015, dated 2019).
